Source: patent publication US4175125A, “Method for treating methicillin resistant staphylococcus aureus” (Eli Lilly and Company, priority 1978, dated 1979)

Experiments:
[1] = water
S. typhosa SA12 = assay: In vitro MIC in agar, additional microorganisms; type: cell-based
S. typhimurium = assay: In vitro MIC in agar, additional microorganisms; type: cell-based; details: Salmonella enterica
Text: (§1) The compound of Example 13 gave the following in vitro minimum inhibitory concentrations (MIC values), in microgram/milliliter of agar (μg/ml.) against the following additional microorganisms

[2] = tested on: P. morganii, indole positive; assay: In vitro MIC in agar, additional microorganisms; type: cell-based; details: Morganella morganii
Text: as §1

A. flavus = assay: In vitro MIC in agar, additional microorganisms; type: cell-based; details: Aspergillus flavus
Text: as §1

E. aerogenes EB17 = assay: In vitro MIC in agar, additional microorganisms; type: cell-based; details: Klebsiella aerogenes
Text: as §1

P. aeroginosa X239 = assay: In vitro MIC in agar, additional microorganisms; type: cell-based
Text: as §1

E. coli EC14 = assay: In vitro MIC in agar, additional microorganisms; type: cell-based; details: Escherichia coli
Text: as §1

H. pneumoniae KL14 = assay: In vitro MIC in agar, additional microorganisms; type: cell-based; details: Klebsiella pneumoniae
Text: as §1

C. ulmi = assay: In vitro MIC in agar, additional microorganisms; type: cell-based
Text: as §1

P. solenaecarum X185 = assay: In vitro MIC in agar, additional microorganisms; type: cell-based
Text: as §1

T. mentagrophytes 27 = assay: In vitro MIC in agar, additional microorganisms; type: cell-based; details: Trichophyton mentagrophytes
Text: as §1

C. tropicalis A17 = assay: In vitro MIC in agar, additional microorganisms; type: cell-based; details: Candida tropicalis
Text: as §1

B. bronchiseptica = assay: In vitro MIC in agar, additional microorganisms; type: cell-based; details: Bordetella bronchiseptica
Text: as §1

S. facalis X66 = assay: In vitro MIC in agar, additional microorganisms; type: cell-based
Text: as §1

E. amylovora = assay: In vitro MIC in agar, additional microorganisms; type: cell-based; details: Erwinia amylovora
Text: as §1

C. freundii CF17 = assay: In vitro MIC in agar, additional microorganisms; type: cell-based; details: Citrobacter freundii
Text: as §1

S. marcescens SE3 = assay: In vitro MIC in agar, additional microorganisms; type: cell-based; details: Serratia marcescens
Text: as §1

S. aureus = assay: In vitro MIC in agar, additional microorganisms; type: cell-based; details: Staphylococcus aureus
Text: as §1

[3] = tested on: Staphylococcus aureus cultures; assay: Agar dilution MIC, Example 13 compound vs methicillin resistant Staphylococcus aureus; type: cell-based
Text: The table which follows gives the minimum inhibitory concentration (MIC) in micrograms of compound per milliliter of culture (μg/ml), in comparison with similar MIC values for the known antibiotics methicillin, cephalothin and cephaloridine against the same strains of bacteria.

physchem = details: water
[4] = tested on: Streptococcus pyogenes C203; assay: MIC in broth against Streptococcus pyogenes C203; type: cell-based
Experimental: The MIC for the compound of Example 13 against Streptococcus pyogenes C203 in broth was 0.008 μg/ml.

Cc1nnc(SCC2=C(C(=O)[O-])N3C(=O)C(NC(=O)CSc4ccc(F)c(Cl)c4)[C@H]3SC2)s1.[Na+] (stereo partly shown)
0.008 µg/mL: MIC [4]
0.03 µg/mL: MIC ([3]; culture 3055 (control), Trypticase Soy Agar with 4.5% NaCl added (5% NaCl)) | MIC ([3]; culture 3055 (control), Trypticase Soy Agar, 0.5% NaCl) | MIC ([3]; culture 3139, Trypticase Soy Agar with 4.5% NaCl added (5% NaCl))
128 µg/mL: MIC (S. typhimurium) | MIC (E. aerogenes EB17)
> 128 µg/mL: MIC [2] | MIC (A. flavus) | MIC (P. aeroginosa X239) | MIC (C. ulmi) | MIC (P. solenaecarum X185) | MIC (T. mentagrophytes 27) | MIC (C. tropicalis A17) | MIC (B. bronchiseptica) | MIC (C. freundii CF17) | MIC (S. marcescens SE3)
64 µg/mL: MIC (E. coli EC14) | MIC (H. pneumoniae KL14) | MIC (E. amylovora)
400 µg/mL: MIC (S. facalis X66)
0.13 µg/mL: MIC ([3]; culture 3132, Trypticase Soy Agar with 4.5% NaCl added (5% NaCl)) | MIC ([3]; culture 3132, Trypticase Soy Agar, 0.5% NaCl) | MIC ([3]; culture 3133, Trypticase Soy Agar with 4.5% NaCl added (5% NaCl)) | MIC ([3]; culture 3133, Trypticase Soy Agar, 0.5% NaCl)
0.062 µg/mL: MIC (S. aureus; S. aureus 3074 (Pen G. resist.))
0.06 µg/mL: MIC ([3]; culture H232 (control), Trypticase Soy Agar with 4.5% NaCl added (5% NaCl)) | MIC ([3]; culture H232 (control), Trypticase Soy Agar, 0.5% NaCl) | MIC ([3]; culture Seattle 966, Trypticase Soy Agar with 4.5% NaCl added (5% NaCl))
0.25 µg/mL: MIC ([3]; culture 3130, Trypticase Soy Agar with 4.5% NaCl added (5% NaCl)) | MIC ([3]; culture 3131, Trypticase Soy Agar with 4.5% NaCl added (5% NaCl)) | MIC ([3]; culture 3131, Trypticase Soy Agar, 0.5% NaCl) | MIC ([3]; culture 3134, Trypticase Soy Agar with 4.5% NaCl added (5% NaCl)) | MIC ([3]; culture 3136, Trypticase Soy Agar, 0.5% NaCl) | MIC ([3]; culture 3139, Trypticase Soy Agar, 0.5% NaCl) | MIC ([3]; culture Seattle 966, Trypticase Soy Agar, 0.5% NaCl)
32 µg/mL: MIC (S. typhosa SA12)
> 100 mg/mL: solubility (physchem)
0.031 µg/mL: MIC (S. aureus; S. aureus 3055 (penicillin G susceptible))
1 µg/mL: MIC ([3]; culture 3134, Trypticase Soy Agar, 0.5% NaCl) | MIC ([3]; culture 3137, Trypticase Soy Agar with 4.5% NaCl added (5% NaCl)) | MIC ([3]; culture 3137, Trypticase Soy Agar, 0.5% NaCl) | MIC ([3]; culture 3138, Trypticase Soy Agar, 0.5% NaCl) | MIC ([3]; culture Havarmak 1136501, Trypticase Soy Agar with 4.5% NaCl added (5% NaCl))
increases: solubility upon warming (in words) [1]
0.5 µg/mL: MIC ([3]; culture 3130, Trypticase Soy Agar, 0.5% NaCl) | MIC ([3]; culture 3135, Trypticase Soy Agar with 4.5% NaCl added (5% NaCl)) | MIC ([3]; culture 3135, Trypticase Soy Agar, 0.5% NaCl) | MIC ([3]; culture 3136, Trypticase Soy Agar with 4.5% NaCl added (5% NaCl)) | MIC ([3]; culture 3138, Trypticase Soy Agar with 4.5% NaCl added (5% NaCl)) | MIC ([3]; culture Havarmak 1136501, Trypticase Soy Agar, 0.5% NaCl) | MIC ([3]; culture S 61, Trypticase Soy Agar with 4.5% NaCl added (5% NaCl)) | MIC ([3]; culture S 61, Trypticase Soy Agar, 0.5% NaCl)
